{"source": "patent US20250040548A1", "about": "“Herbicidal compositions comprising saflufenacil” (BASF SF, priority 2023, published 2025)", "key": {"KCHSC": {"test_system": "KCHSC", "assay": "Post-emergence application in greenhouse trials", "assay_type": "in vivo, Kochia scoparia", "conditions": "growth stage 33, 1% MSO", "method": "(§1) In the examples below, using the method of S. R. Colby (1967) “Calculating synergistic and antagonistic responses of herbicide combinations”, Weeds 15, p. 22ff., the value E, which is expected if the activity of the individual active compounds is only additive, was calculated.\n(§2) [formula] • where • X=percent activity using active herbicide A at an application rate a; • Y=percent activity using active saflufenacil at an application rate b; • E=expected activity (in %) by A+B at application rates a+b.\n(§3) If the value found experimentally is higher than the value E calculated according to Colby, a synergistic effect is present.\n(§4) The culture containers used were plastic pots containing loamy sand with approximately 3.0% of humus as substrate. The seeds of the test plants were sown separately for each species.\n(§5) For the post-emergence treatment, the test plants were grown to a plant height of from 3 to 15 cm, depending on the plant habit, and only then treated with the active compounds which had been suspended or emulsified in water. To this end, the test plants were either sown directly, and grown in the same containers, or they were first grown separately as seedlings and transplanted into the test containers a few days prior to treatment.\n(§6) Depending on the species, the plants were kept at 10-25° C. and 20-35° C., respectively.\n(§7) The test period extended over 2 to 4 weeks. During this time, the plants were tended and their response to the individual treatments was evaluated.\n(§8) Evaluation was carried out using a scale from 0 to 100. 100 means no emergence of the plants, or complete destruction of at least the above-ground parts, and 0 means no damage or normal course of growth. A good herbicidal activity is given at values of at least 70, and very good herbicidal activity is given at values of at least 85.\n(§9) Unless indicated otherwise, herbicide A and saflufenacil were formulated (50 g/I) and applied with addition of 1% MSO (methylated seed oil) as adjuvant. In the greenhouse trials, the solvent used was water (200 I/ha)."}, "EPHHL": {"test_system": "EPHHL", "assay": "Post-emergence application in field trials (Examples 2 and 3)", "assay_type": "in vivo, Euphorbia heterophylla", "conditions": "A-1 25 g ai/ha, 21 DAT, growth stage 12-16, height 5-15 cm, 0.5% MSO", "method": "as §1, §2, §3\n(§10) On field test sites, natural weed infestation or seeded weeds were treated post-emergence of the weeds.\n(§11) For the post emergence treatment, the weedy plants were treated as indicated below. The herbicidal compositions were, together with the adjuvant(s) as indicated, suspended or emulsified in water (200 l/ha unless indicated otherwise) as distribution medium and sprayed with commercial flat fan nozzles.\n(§12) In the following experiments, the herbicidal activity for the individual herbicidal compositions (solo and mixture applications) was assessed the indicated days after treatment (DAT). The assessments for the damage on undesired weeds caused by the composition was carried out using a scale from 0 to 100%, compared to the untreated control plants. […]"}, "ELEIN [1]": {"test_system": "ELEIN", "assay": "Post-emergence application in field trials (Examples 2 and 3)", "assay_type": "in vivo, Eleusine indica", "method": "as §1, §2, §3, §10, §11\n(§13) In the following experiments, the herbicidal activity for the individual herbicidal compositions (solo and mixture applications) was assessed the indicated days after treatment (DAT). The assessments for the damage on undesired weeds caused by the composition was carried out using a scale from 0 to 100%, compared to the untreated control plants. Here, 0 means no damage and 100 means complete destruction of the plants.\n(§14) For the post emergence treatment, the weedy plants were treated as indicated below. The herbicidal compositions were, together with the adjuvant(s) as indicated, suspended or emulsified in water (200 I/ha unless indicated otherwise) as distribution medium and sprayed with commercial flat fan nozzles."}, "CHEAL": {"test_system": "CHEAL", "assay": "Post-emergence application in greenhouse trials", "assay_type": "in vivo, Chenopodium album", "conditions": "A-1 3.12 g ai/ha, 21 DAT, growth stage 51, saflufenacil as commercial 342 g/l SC formulation", "method": "as §1, §2, §3, §4\n(§15) For the post-emergence treatment, the test plants were grown to a plant height of from 3 to 15 cm, depending on the plant habit, and only then treated with the active compounds which had been suspended or emulsified in water. To this end, the test plants were either sown directly, and grown in the same containers, or they were first grown separately as seedlings and transplanted into the test containers a few days prior to treatment. […]\n(§16) The test period extended over 2 to 4 weeks. During this time, the plants were tended and their response to the individual treatments was evaluated. […]"}, "IPOTR": {"test_system": "IPOTR", "assay": "Post-emergence application in field trials (Examples 2 and 3)", "assay_type": "in vivo, Ipomoea triloba", "conditions": "growth stage 40-41, height 65-75 cm, A-1 solo 30 g ai/ha, 21 DAT, 1% Dash ® HC", "method": "as §1, §2, §3, §10, §11, §12"}, "STEME": {"test_system": "STEME", "assay": "Post-emergence application in field trials (Examples 2 and 3)", "assay_type": "in vivo, Stellaria media", "conditions": "A-1 12.5 g ai/ha, 21 DAT, growth stage 63-67, height 7-18 cm, 140 l/ha water, 1% MSO + 2.5% ammoniumsulfate", "method": "as §1, §2, §3, §10, §11, §12"}, "AMATA": {"test_system": "AMATA", "assay": "Post-emergence application in greenhouse trials", "assay_type": "in vivo, Amaranthus tamariscinus", "conditions": "20 DAT, growth stage 14, 1% MSO", "method": "as §1, §2, §3, §4, §5, §6, §7, §8, §9"}, "BIDPI": {"test_system": "BIDPI", "assay": "Post-emergence application in field trials (Examples 2 and 3)", "assay_type": "in vivo, Bidens pilosa", "conditions": "A-1 25 g ai/ha, 21 DAT, growth stage 12-16, height 5-10 cm, 0.5% MSO", "method": "as §1, §2, §3, §10, §11, §12"}, "BRADC": {"test_system": "BRADC", "assay": "Post-emergence application in field trials (Examples 2 and 3)", "assay_type": "in vivo, Brachiaria decumbens", "conditions": "growth stage 22-23, height 32-38 cm, 21 DAT, 1% Dash ® HC", "method": "as §1, §2, §3, §10, §11, §13, §14"}, "COMBE [2]": {"test_system": "COMBE", "assay": "Post-emergence application in greenhouse trials", "assay_type": "in vivo, Commelina benghalensis", "conditions": "growth stage 21, 1% MSO", "method": "as §1, §2, §3, §4, §5, §6, §7, §8, §9"}, "COMBE [3]": {"test_system": "COMBE", "assay": "Post-emergence application in field trials (Examples 2 and 3)", "assay_type": "in vivo, Commelina benghalensis", "conditions": "A-1 50 g ai/ha, 21 DAT, growth stage 11-14, height 2-10 cm, 0.5% MSO", "method": "as §1, §2, §3, §10, §11, §12"}, "ELEIN [4]": {"test_system": "ELEIN", "assay": "Post-emergence application in greenhouse trials", "assay_type": "in vivo, Eleusine indica", "conditions": "A-1 3.12 g ai/ha, 21 DAT, growth stage 21, saflufenacil as commercial 342 g/l SC formulation", "method": "as §1, §2, §3, §4, §15, §16"}, "SETVI": {"test_system": "SETVI", "assay": "Post-emergence application in field trials (Examples 2 and 3)", "assay_type": "in vivo, Setaria viridis", "method": "as §1, §2, §3, §10, §11, §13, §14"}, "ECHCG": {"test_system": "ECHCG", "assay": "Post-emergence application in field trials (Examples 2 and 3)", "assay_type": "in vivo, Echinocloa crus-galli", "method": "as §1, §2, §3, §10, §11, §13, §14"}, "AVEST": {"test_system": "AVEST", "assay": "Post-emergence application in field trials (Examples 2 and 3)", "assay_type": "in vivo, Avena stirilis", "conditions": "growth stage 12-22, A-1 solo 12.5 g ai/ha, 14 DAT, 1% v/ MSO", "method": "as §1, §2, §3, §10, §11, §12"}}, "data": [{"smiles": "CCOC(=O)COc1ccccc1Oc1nc(-n2c(=O)cc(C(F)(F)F)n(C)c2=O)c(F)cc1Cl", "note": "[A-1, ethyl 2-[2-[[3-chloro-5-fluoro-6-[3-methyl-2,6-dioxo-4-(trifluoromethyl)pyrimidin-1-yl]-2-pyridyl]oxy]phenoxy]acetate]", "values": [{"measurement": "% Herbicidal activity", "setting": "KCHSC; A-1 0.2 g ai/ha, 6 DAT", "result": 15, "unit": "%"}, {"measurement": "% Herbicidal activity", "setting": "KCHSC; A-1 0.2 g ai/ha, 20 DAT", "result": 15, "unit": "%"}, {"measurement": "% Herbicidal activity", "setting": "KCHSC; A-1 0.3 g ai/ha, 6 DAT", "result": 55, "unit": "%"}, {"measurement": "% Herbicidal activity", "setting": "KCHSC; A-1 0.4 g ai/ha, 6 DAT", "result": 55, "unit": "%"}, {"measurement": "% Herbicidal activity", "setting": "KCHSC; A-1 0.4 g ai/ha, 20 DAT", "result": 55, "unit": "%"}, {"measurement": "% Herbicidal activity", "setting": "KCHSC; A-1 0.9 g ai/ha, 6 DAT", "result": 90, "unit": "%"}, {"measurement": "% Herbicidal activity", "setting": "KCHSC; A-1 1 g ai/ha, 6 DAT", "result": 95, "unit": "%"}, {"measurement": "% Herbicidal activity", "setting": "EPHHL", "result": 97, "unit": "%"}, {"measurement": "% Herbicidal activity", "setting": "ELEIN [1]; A-1 12.5 g ai/ha, 21 DAT, height 1-15 cm, 140 l/ha water, 1% MSO + 2.5% ammoniumsulfate", "result": 49, "unit": "%"}, {"measurement": "% Herbicidal activity", "setting": "ELEIN [1]; A-1 12.5 g ai/ha, 21 DAT, height 7-10 cm, 1% v/v MSO and 1% w/v ammoniumsulfate", "result": 18, "unit": "%"}, {"measurement": "% Herbicidal activity", "setting": "ELEIN [1]; A-1 12.5 g ai/ha, 21 DAT, height 15-20 cm, 1% v/v MSO and 1% w/v ammoniumsulfate", "result": 27, "unit": "%"}, {"measurement": "% Herbicidal activity", "setting": "ELEIN [1]; A-1 25 g ai/ha, 19 DAT, growth stage 24, 0.5% MSO", "result": 68, "unit": "%"}, {"measurement": "% Herbicidal activity", "setting": "ELEIN [1]; A-1 25 g ai/ha, 21 DAT, height 7-10 cm, 1% v/v MSO and 1% w/v ammoniumsulfate", "result": 78, "unit": "%"}, {"measurement": "% Herbicidal activity", "setting": "ELEIN [1]; A-1 25 g ai/ha, 21 DAT, height 15-20 cm, 1% v/v MSO and 1% w/v ammoniumsulfate", "result": 55, "unit": "%"}, {"measurement": "% Herbicidal activity", "setting": "ELEIN [1]; A-1 50 g ai/ha, 19 DAT, growth stage 24, 0.5% MSO", "result": 73, "unit": "%"}, {"measurement": "% Herbicidal activity", "setting": "CHEAL", "result": 65, "unit": "%"}, {"measurement": "% Herbicidal activity", "setting": "IPOTR", "result": 57, "unit": "%"}, {"measurement": "% Herbicidal activity", "setting": "STEME", "result": 83, "unit": "%"}, {"measurement": "% Herbicidal activity", "setting": "AMATA; A-1 0.2 g ai/ha", "result": 75, "unit": "%"}, {"measurement": "% Herbicidal activity", "setting": "AMATA; A-1 0.3 g ai/ha", "result": 75, "unit": "%"}, {"measurement": "% Herbicidal activity", "setting": "BIDPI", "result": 94, "unit": "%"}, {"measurement": "% Herbicidal activity", "setting": "BRADC; A-1 solo 30 g ai/ha", "result": 75, "unit": "%"}, {"measurement": "% Herbicidal activity", "setting": "BRADC; A-1 solo 50 g ai/ha", "result": 88, "unit": "%"}, {"measurement": "% Herbicidal activity", "setting": "COMBE [2]; A-1 0.2 g ai/ha, 6 DAT", "result": 15, "unit": "%"}, {"measurement": "% Herbicidal activity", "setting": "COMBE [2]; A-1 0.2 g ai/ha, 20 DAT", "result": 40, "unit": "%"}, {"measurement": "% Herbicidal activity", "setting": "COMBE [2]; A-1 0.4 g ai/ha, 20 DAT", "result": 75, "unit": "%"}, {"measurement": "% Herbicidal activity", "setting": "COMBE [3]", "result": 94, "unit": "%"}, {"measurement": "% Herbicidal activity", "setting": "ELEIN [4]", "result": 80, "unit": "%"}, {"measurement": "% Herbicidal activity", "setting": "SETVI; A-1 12.5 g ai/ha, 19 DAT, growth stage 13-19, height 2.5-10 cm, field, 1% v/v MSO and 1% w/v ammoniumsulfate", "result": 87, "unit": "%"}, {"measurement": "% Herbicidal activity", "setting": "SETVI; A-1 25 g ai/ha, 19 DAT, growth stage 13-19, height 2.5-10 cm, field, 1% v/v MSO and 1% w/v ammoniumsulfate", "result": 96, "unit": "%"}, {"measurement": "% Herbicidal activity", "setting": "SETVI; SETVI, height 50-61 cm, A-1 solo 25 g ai/ha, 42 DAT, 1% v/v MSO and 2.5% AMSOL ®", "result": 57, "unit": "%"}, {"measurement": "% Herbicidal activity", "setting": "ECHCG; A-1 12.5 g ai/ha, 14 DAT, growth stage 14-19, height 2-8 cm, field, 140 l/ha water, 1% MSO + 2.5% ammoniumsulfate", "result": 75, "unit": "%"}, {"measurement": "% Herbicidal activity", "setting": "ECHCG; A-1 25 g ai/ha, 21 DAT, height 12.5-30 cm, field, 1% v/v MSO and 1% w/v ammoniumsulfate", "result": 58, "unit": "%"}, {"measurement": "% Herbicidal activity", "setting": "ECHCG; ECHCG, growth stage 21-23, height 43-44 cm, A-1 solo 30 g ai/ha, 21 DAT, 1% Dash ® HC", "result": 52, "unit": "%"}, {"measurement": "% Herbicidal activity", "setting": "AVEST", "result": 95, "unit": "%"}]}]}
